Assays:
Staphylococcus = test: Compound was tested in vitro for antibacterial activity against Staphylococcus.; assay type: functional
[1] = Compound was tested in vitro for inhibition of gram positive organisms.; assay type: functional; conditions: Bacteria
Escherichia coli = test: Compound was tested in vitro for antibacterial activity against Escherichia coli.; assay type: functional
Salmonella = test: Compound was tested in vitro for antibacterial activity against Salmonella.; assay type: functional
Providencia = test: Compound was tested in vitro for antibacterial activity against Providencia.; assay type: functional
Enterococcus faecalis = test: Compound was tested in vitro for antibacterial activity against Enterococcus faecalis.; assay type: functional
Klebsiella = test: Compound was tested in vitro for antibacterial activity against Klebsiella.; assay type: functional
Enterobacter = test: Compound was tested in vitro for antibacterial activity against Enterobacter.; assay type: functional
Morganella = test: Compound was tested in vitro for antibacterial activity against Morganella.; assay type: functional
Bacillus subtilis = test: Compound was tested in vitro for antibacterial activity against Bacillus subtilis.; assay type: functional
[2] = Compound was tested in vitro for inhibition of gram negative organisms.; assay type: functional; conditions: Bacteria
Serratia = test: Compound was tested in vitro for antibacterial activity against Serratia.; assay type: functional
Micrococcus luteus = test: Compound was tested in vitro for antibacterial activity against Sarcina lutea.; assay type: functional, sarcinea lutea

| SMILES | MIC (Staphylococcus) [µg/mL] | MIC [1] [µg/mL] | MIC (Escherichia coli) [µg/mL] | MIC (Salmonella) [µg/mL] | MIC (Providencia) [µg/mL] | MIC (Enterococcus faecalis) [µg/mL] | MIC (Klebsiella) [µg/mL] | MIC (Enterobacter) [µg/mL] | MIC (Morganella) [µg/mL] | MIC (Bacillus subtilis) [µg/mL] | MIC [2] [µg/mL] | MIC (Serratia) [µg/mL] | MIC (Micrococcus luteus) [µg/mL] |
| --- | --- | --- | --- | --- | --- | --- | --- | --- | --- | --- | --- | --- | --- |
| CCCCOC1=C(C(=O)[O-])N2C(=O)[C@H]([C@@H](C)O)[C@H]2S1.[Na+] | 1.51 | 2.26 | ≥ 25.9 | ≥ 36.8 | ≥ 80.6 | 32 | ≥ 32 | ≥ 128 | ≥ 90.5 | 1 | 53 | ≥ 128 | 1 |
| CCSC1=C(C(=O)[O-])N2C(=O)[C@H]([C@@H](C)O)[C@H]2S1.[Na+] | – | 0.1 | – | – | – | – | – | – | – | – | 0.7 | – | – |
| C[C@@H](O)[C@H]1C(=O)N2C(C(=O)[O-])=C(OCCN)S[C@H]12.[Na+] | 27.4 | 27.3 | ≥ 128 | ≥ 128 | ≥ 128 | 45.3 | ≥ 128 | ≥ 128 | ≥ 128 | 8 | ≥ 128 | ≥ 128 | 32 |
| COC1=C(C(=O)[O-])N2C(=O)[C@H]([C@@H](C)O)[C@H]2S1.[Na+] | 1.51 | 3.2 | 10.4 | 6.96 | 39.4 | 32 | 8.98 | 24.2 | 45.3 | 1.41 | 16.6 | 29.6 | 2 |
| C[C@@H](O)[C@H]1C(=O)N2C(C(=O)[O-])=C(OCCOC(N)=O)S[C@H]12.[Na+] | 1.57 | 2.07 | 6.62 | 4 | 27.9 | 64 | 4.92 | 10.1 | 16 | 1 | 8.3 | 16 | 0.5 |
| CCOC1=C(C(=O)[O-])N2C(=O)[C@H]([C@@H](C)O)[C@H]2S1.[Na+] | 3.12 | 2.8 | 6.82 | 4.6 | 39.4 | 64 | 5.04 | ≥ 24.2 | 45.3 | 1 | 12.1 | ≥ 22.6 | 1 |
| C[C@@H](O)[C@H]1C(=O)N2C(C(=O)[O-])=C(SCCOC(N)=O)S[C@H]12.[Na+] | – | 0.2 | – | – | – | – | – | – | – | – | 0.5 | – | – |
| CCCOC1=C(C(=O)[O-])N2C(=O)[C@H]([C@@H](C)O)[C@H]2S1.[Na+] | 1.66 | 2.44 | 14.4 | 10.6 | ≥ 64 | 32 | 20.2 | ≥ 73.5 | 64 | 1 | 31.6 | ≥ 87.1 | 1 |
| C[C@@H](O)[C@H]1C(=O)N2C(C(=O)[O-])=C(SCCN)S[C@H]12.[Na+] | – | 0.2 | – | – | – | – | – | – | – | – | 3.6 | – | – |
